# Test results: ChEMBL document CHEMBL1201862, “PubChem BioAssay data set” (2004)
#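 Cells were grown in 96-well plates and exposed to each compound for 48 hours at five concentrations; endpoints were interpolated linearly between bracketing concentrations, or set to the highest concentration if not reached. At the GI50, growth is halved.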 The source made the active and inactive calls. Rule as the data show it: active = GI50 up to about 1.1 µM and inactive = higher.
# Assays:
# Experiment in all cases: DTP human tumour cell line panel, 48 h
# [1] = system: RPMI-8226
# [2] = system: UACC-257
# [3] = system: SF-539
# [4] = system: HCT-15
# [5] = system: SR
# [6] = system: SF-268
# [7] = system: NCI-H522
# [8] = system: Hs-578T
# [9] = system: TK-10
# [10] = system: MCF7
# [11] = system: CCRF-CEM
# [12] = system: HOP-62
# [13] = system: OVCAR-5
# [14] = system: OVCAR-8
# [15] = system: IGROV-1
# [16] = system: NCI-H226
# [17] = system: SW-620
# [18] = system: CAKI-1
# [19] = system: UO-31
# [20] = system: A549
# [21] = system: OVCAR-4
# [22] = system: U-251
# [23] = system: MOLT-4
# [24] = system: NCI-H23
# [25] = system: MDA-N
# [26] = system: PC-3
# [27] = system: HCT-116
# [28] = system: HOP-92
# [29] = system: T47D
# [30] = system: SF-295
# [31] = system: 786-0
# [32] = system: SK-MEL-5
# [33] = system: NCI-H460
# [34] = system: SK-OV-3
# [35] = system: HT-29
# [36] = system: KM12
# [37] = system: LOX IMVI
# [38] = system: SNB-19
# [39] = system: OVCAR-3
# [40] = system: M14
# [41] = system: MDA-MB-435
# [42] = system: BT-549
# [43] = system: DU-145
# [44] = system: SN12C
# [45] = system: A498
# [46] = system: K562
# [47] = system: SNB-75
# [48] = system: RXF 393
# [49] = system: COLO 205
# [50] = system: UACC-62
# [51] = system: Malme-3M
# [52] = system: ACHN
# [53] = system: EKVX
# [54] = system: SK-MEL-28
# [55] = system: HL-60
# [56] = system: NCI/ADR-RES
# [57] = system: SK-MEL-2
# [58] = system: HCC 2998
# [59] = system: MDA-MB-231
smiles,measurement,setting,value
CC(C)c1ccc(C(O)(C(=O)O)c2ccc(C(C)C)cc2)cc1,GI50,[1],24.8 µM (inactive)
same,GI50,[2],> 100 µM (inactive)
same,GI50,[3],> 100 µM (inactive)
same,GI50,[4],46.6 µM
same,GI50,[5],60.8 µM (inactive)
same,GI50,[6],33.7 µM (inactive)
same,GI50,[7],34 µM (inactive)
same,GI50,[8],26.3 µM (inactive)
same,GI50,[9],79.3 µM (inactive)
same,GI50,[10],53.7 µM (inactive)
same,GI50,[11],49.4 µM (inactive)
same,GI50,[12],28.3 µM (inactive)
same,GI50,[13],> 100 µM (inactive)
same,GI50,[14],54.1 µM (inactive)
same,GI50,[15],55.7 µM (inactive)
same,GI50,[16],24.5 µM (inactive)
same,GI50,[17],61.8 µM (inactive)
same,GI50,[18],45.8 µM (inactive)
same,GI50,[19],35.3 µM (inactive)
same,GI50,[20],33.1 µM (inactive)
same,GI50,[21],42.6 µM (inactive)
same,GI50,[22],18.2 µM (inactive)
same,GI50,[23],48.8 µM (inactive)
same,GI50,[24],42.1 µM (inactive)
same,GI50,[25],70 µM (inactive)
same,GI50,[26],31.6 µM (inactive)
same,GI50,[27],36.6 µM (inactive)
same,GI50,[28],31.8 µM (inactive)
same,GI50,[29],43.2 µM (inactive)
same,GI50,[30],26.7 µM (inactive)
same,GI50,[31],51.2 µM (inactive)
same,GI50,[32],56.8 µM (inactive)
same,GI50,[33],47.2 µM (inactive)
same,GI50,[34],69.7 µM (inactive)
same,GI50,[35],48.9 µM (inactive)
same,GI50,[36],39.6 µM (inactive)
same,GI50,[37],68.5 µM (inactive)
same,GI50,[38],45 µM (inactive)
same,GI50,[39],26.1 µM (inactive)
same,GI50,[40],63.5 µM (inactive)
same,GI50,[41],95.7 µM (inactive)
same,GI50,[42],91.6 µM (inactive)
same,GI50,[43],61.2 µM (inactive)
same,GI50,[44],46 µM (inactive)
same,GI50,[45],57.9 µM (inactive)
same,GI50,[46],42.5 µM (inactive)
same,GI50,[47],42.7 µM (inactive)
same,GI50,[48],61.9 µM (inactive)
same,GI50,[49],> 100 µM (inactive)
same,GI50,[50],44.6 µM (inactive)
same,GI50,[51],78.7 µM (inactive)
same,GI50,[52],40.2 µM (inactive)
same,GI50,[53],51.8 µM (inactive)
same,GI50,[54],64.9 µM (inactive)
same,GI50,[55],39.2 µM (inactive)
same,GI50,[56],73.5 µM (inactive)
CN(C)c1ccc(C=c2c3cc(O)ccc3n3c2cc(-c2ccccc2)[n+]3C)cc1,GI50,[1],0.282 µM (active)
same,GI50,[2],1.08 µM (active)
same,GI50,[4],18 µM
same,GI50,[5],0.568 µM (active)
same,GI50,[57],1.27 µM (inactive)
same,GI50,[6],0.446 µM (active)
same,GI50,[7],0.337 µM (active)
same,GI50,[8],0.333 µM (active)
same,GI50,[58],2.22 µM (inactive)
same,GI50,[9],3.72 µM (inactive)
same,GI50,[10],0.692 µM (active)
same,GI50,[11],0.656 µM (active)
same,GI50,[12],1.81 µM (inactive)
same,GI50,[13],4.82 µM (inactive)
same,GI50,[14],0.76 µM (active)
same,GI50,[15],0.281 µM (active)
same,GI50,[16],1.66 µM (inactive)
same,GI50,[17],1.22 µM (inactive)
same,GI50,[18],8.63 µM (inactive)
same,GI50,[19],2.93 µM (inactive)
same,GI50,[20],3.73 µM (inactive)
same,GI50,[21],3.28 µM (inactive)
same,GI50,[22],0.317 µM (active)
same,GI50,[23],3.27 µM (inactive)
same,GI50,[24],1.08 µM (active)
same,GI50,[25],0.67 µM (active)
same,GI50,[26],0.9 µM (active)
same,GI50,[27],1.39 µM (inactive)
same,GI50,[28],1.13 µM (inactive)
same,GI50,[30],3.78 µM (inactive)
same,GI50,[31],1.09 µM (active)
same,GI50,[32],0.78 µM (active)
same,GI50,[34],3.08 µM (inactive)
same,GI50,[35],1.69 µM (inactive)
same,GI50,[36],1.06 µM (active)
same,GI50,[37],1.18 µM (inactive)
same,GI50,[38],0.369 µM (active)
same,GI50,[39],0.746 µM (active)
same,GI50,[40],1.51 µM (inactive)
same,GI50,[41],0.964 µM (active)
same,GI50,[42],0.383 µM (active)
same,GI50,[43],1.92 µM (inactive)
same,GI50,[44],0.33 µM (active)
same,GI50,[45],4.47 µM (inactive)
same,GI50,[46],0.428 µM (active)
same,GI50,[47],0.468 µM (active)
same,GI50,[48],1.53 µM (inactive)
same,GI50,[59],1.04 µM (active)
same,GI50,[49],0.452 µM (active)
same,GI50,[50],1.36 µM (inactive)
same,GI50,[52],7.78 µM (inactive)
same,GI50,[53],1.96 µM (inactive)
same,GI50,[54],1.06 µM (active)
same,GI50,[55],0.254 µM (active)
same,GI50,[56],36.1 µM (inactive)
